Test results taken from US10759814B2, “Pharmaceutical compositions containing substituted polycyclic pyridone derivatives and prodrug thereof” (priority 2016, dated 2020).
“And” between values parts separate entries of the source, which are not always exact repeats. Equal values may be shown once. Read-outs that look alike come from different tables or passages of the source.

Legend:
influenza virus [1] = type: in vivo, human
influenza virus [2] = experiment: Clinical test (Test Example 15): time to alleviation of influenza symptoms; details: for Time to alleviation of influenza symptoms, difference from placebo / Time to alleviation of influenza symptoms, hazard ratio (Cox proportional hazard model relative to placebo) / Time to alleviation of influenza symptoms, median value: ITTI; for Time to alleviation of influenza symptoms, median value: influenza patients 20 to <65 years old; for Time until cough symptom is alleviated, median value / Time until fatigue symptom is alleviated, median value / Time until feverishness or chills symptom is alleviated, median value / Time until headache symptom is alleviated, median value / Time until muscular or joint pain symptom is alleviated, median value / Time until nasal congestion symptom is alleviated, median value / Time until sore throat symptom is alleviated, median value: patients with symptom moderate or severe at baseline
Source text: Test Example 15: Clinical Test
As for the primary endpoint, subjects made evaluations by themselves on a 4-point scale [0: none, 1: mild, 2: moderate, 3: severe] concerning the time to alleviation of influenza symptoms (the time from the beginning of administration of the investigational drug until 7 influenza symptoms (“cough”, “sore throat”, “headache”, “nasal congestion”, “feverishness or chills”, “muscular or joint pain”, and “fatigue”) were alleviated) to evaluate the efficacy of the investigational drug over the placebo.
Patients who satisfied all of the following criteria were selected as subjects.
(a) Male or female patients at 20 years old or older and younger than 65 years old
(b) Patients satisfying all of the following criteria and diagnosed with influenza virus infectious disease
The main efficacy endpoint is the time to alleviation of influenza symptoms (the time to alleviation of influenza symptoms).
It is the time from the beginning of administration until alleviation of influenza symptoms. Alleviation of influenza symptoms refers to when all 7 influenza symptoms (cough, sore throat, headache, nasal congestion, feverishness or chills, muscular or joint pain, fatigue) become “0: none” or “1: mild” in the patient diary that the subject keeps, and this condition continues at least 21.5 hours (24 hours—10%).
Secondary Efficacy Endpoint
The secondary efficacy endpoint is as follows.
(1) Time to Alleviation of Each Influenza Symptom
It is the time from the beginning of administration until alleviation of each influenza symptom. Alleviation of a symptom refers to when the target item becomes “0: none” or “1: mild”, and this condition continues at least 21.5 hours (24 hours—10%).
Analysis of Primary Endpoint
As for the time to alleviation of influenza symptoms, which is the primary endpoint, the primary analysis and the secondary analysis are described. In addition to the ITTI group, the primary analysis was also performed on the PPS group for sensitivity analysis. Other analyses were performed only on the ITTI group.
The hazard ratio, 95% confidence interval, and P value of each administered group relative to the placebo group were calculated by a Cox proportional hazard model using the time to alleviation of influenza symptoms as a response, the administered groups as fixed effects, and the current smoking habit and the total score of 7 influenza symptoms at baseline before administration, which are allocation factors, as covariates. In order to prevent an increase of the probability of type I error due to performing the test multiple times, the P value was adjuste d by the Hommel's method.
The placebo group and each investigational drug administered group were compared by stratified generalized Wilcoxon test using the time to alleviation of influenza symptoms as a response, the administered groups as explanatory variables, and the category (11 points or less, 12 points or more) of the total score of 7 influenza symptoms before administration and the smoking habit, which are allocation factors, as stratification factors.
Also, a Kaplan-Meier survival curve was drawn for each group to calculate the median time to alleviation of influenza symptoms and the 95% confidence interval thereof. The Greenwood's method was used for calculating the confidence interval.
Analysis of Secondary Endpoint
(1) Time Until Each Alleviation of Influenza Symptom
The same analysis as in the primary endpoint was performed, with the time until each alleviation of influenza symptom being regarded as a response. At this time, cases where the symptom before administration was “0: none” or “1: mild” were excluded from the analysis target.

[3] = type: in vivo; details: after oral administration of Compound II-6 to rat under non-fasting conditions
Source text: FIG. 1 is a result of measuring the plasma concentration of Compound III-2, after oral administration of prodrug Compound II-6, the parent compound of which is Compound III-2, to rat under non-fasting conditions.
FIG. 2 is a result of measuring the plasma concentration of Compound II-6, after oral administration of prodrug Compound II-6, the parent compound of which is Compound III-2, to rat under non-fasting conditions.
Test Example 13: Transition of Plasma Concentration
The plasma concentration of Compound III-2 and Compound II-6 after oral administration of prodrug Compound II-6, the parent compound of which was Compound III-2, to rat under non-fasting conditions was measured.

[4] = type: in vivo, human; details: Compound II-6 single 40 or 80 mg; Oseltamivir 75 mg twice a day for 5 days
Source text: (4) Incidence of side effects
(4) Incidence of Side Effects
The number of side-effect episodes and the number of patients with side effect were counted for each administration group.

[5] = Day 2 (24 hours later), 12 to <65 years old
[6] = Day 2 (24 hours later), 20 to <65 years old
[7] = Day 3 (48 hours later), 12 to <65 years old
[8] = Day 3 (48 hours later), 20 to <65 years old
[9] = Day 4 (72 hours later), 12 to <65 years old
[10] = Day 4 (72 hours later), 20 to <65 years old
[11] = Day 5 (96 hours later), 12 to <65 years old
[12] = Day 5 (96 hours later), 20 to <65 years old
[13] = Day 6 (120 hours later), 12 to <65 years old
[14] = Day 6 (120 hours later), 20 to <65 years old
[15] = Day 9 (192 hours later), 12 to <65 years old
[16] = Day 9 (192 hours later), 20 to <65 years old

COC(=O)OCOc1c2n(ccc1=O)N([C@@H]1c3ccccc3SCc3c1ccc(F)c3F)[C@@H]1COCCN1C2=O [II-6]
Time (median) to termination of viral shedding based on virus titer (influenza virus [1]; 12 to <65 years old): 24.0 h | Time to termination of viral shedding, difference between groups vs placebo (influenza virus [1]; 12 to <65 years old): -72.0 h | Time to termination of viral shedding, difference between groups vs Oseltamivir (influenza virus [1]; 20 to <65 years old): -48.0 h | Amount of change in virus titer from baseline, mean (influenza virus [1]; [5]): −4.44 log10 [TCID50/mL] | Proportion of patients having a positive influenza virus titer (influenza virus [1]; [5]): 47.8% | Amount of change in virus titer from baseline, mean (influenza virus [1]; [6]): −4.39 log10 [TCID50/mL] | Proportion of patients having a positive influenza virus titer (influenza virus [1]; [6]): 47.6% | Amount of change in virus titer from baseline, mean (influenza virus [1]; [7]): −4.82 log10 [TCID50/mL] | Proportion of patients having a positive influenza virus titer (influenza virus [1]; [7]): 21.5% | Amount of change in virus titer from baseline, mean (influenza virus [1]; [8]): −4.78 log10 [TCID50/mL] | Proportion of patients having a positive influenza virus titer (influenza virus [1]; [8]): 19.8% | Amount of change in virus titer from baseline, mean (influenza virus [1]; [9]): −4.50 log10 [TCID50/mL] | Proportion of patients having a positive influenza virus titer (influenza virus [1]; [9]): 16.7% | Amount of change in virus titer from baseline, mean (influenza virus [1]; [10]): −4.46 log10 [TCID50/mL] | Proportion of patients having a positive influenza virus titer (influenza virus [1]; [10]): 16.1% | Amount of change in virus titer from baseline, mean (influenza virus [1]; [11]): −4.95 log10 [TCID50/mL] | Proportion of patients having a positive influenza virus titer (influenza virus [1]; [11]): 13.6% | Amount of change in virus titer from baseline, mean (influenza virus [1]; [12]): −4.95 log10 [TCID50/mL] | Proportion of patients having a positive influenza virus titer (influenza virus [1]; [12]): 13.0% | Amount of change in virus titer from baseline, mean (influenza virus [1]; [13]): −4.58 log10 [TCID50/mL] | Proportion of patients having a positive influenza virus titer (influenza virus [1]; [13]): 8.2% | Amount of change in virus titer from baseline, mean (influenza virus [1]; [14]): −4.56 log10 [TCID50/mL] | Proportion of patients having a positive influenza virus titer (influenza virus [1]; [14]): 5.6% | Amount of change in virus titer from baseline, mean (influenza virus [1]; [15]): −5.06 log10 [TCID50/mL] | Proportion of patients having a positive influenza virus titer (influenza virus [1]; [15]): 2.9% | Amount of change in virus titer from baseline, mean (influenza virus [1]; [16]): −5.03 log10 [TCID50/mL] | Proportion of patients having a positive influenza virus titer (influenza virus [1]; [16]): 3.0% | Time until cough symptom is alleviated, difference from placebo (influenza virus [2]; single oral 10 mg): -0.1 h | Time until cough symptom is alleviated, hazard ratio (Cox model relative to placebo) (influenza virus [2]; single oral 10 mg): 0.941 | Time until fatigue symptom is alleviated, difference from placebo (influenza virus [2]; single oral 10 mg): -10.7 h | Time until fatigue symptom is alleviated, hazard ratio (Cox model relative to placebo) (influenza virus [2]; single oral 10 mg): 0.783 | Time until feverishness or chills symptom is alleviated, difference from placebo (influenza virus [2]; single oral 10 mg): -4.1 h | Time until feverishness or chills symptom is alleviated, hazard ratio (Cox model relative to placebo) (influenza virus [2]; single oral 10 mg): 0.635 | Time until headache symptom is alleviated, difference from placebo (influenza virus [2]; single oral 10 mg): -1.5 h | Time until headache symptom is alleviated, hazard ratio (Cox model relative to placebo) (influenza virus [2]; single oral 10 mg): 0.803 | Time until muscular or joint pain symptom is alleviated, difference from placebo (influenza virus [2]; single oral 10 mg): -10.7 h | Time until muscular or joint pain symptom is alleviated, hazard ratio (Cox model relative to placebo) (influenza virus [2]; single oral 10 mg): 0.77 | Time until nasal congestion symptom is alleviated, difference from placebo (influenza virus [2]; single oral 10 mg): -17.6 h | Time until nasal congestion symptom is alleviated, hazard ratio (Cox model relative to placebo) (influenza virus [2]; single oral 10 mg): 0.742 | Time until sore throat symptom is alleviated, difference from placebo (influenza virus [2]; single oral 10 mg): 9.1 h | Time until sore throat symptom is alleviated, hazard ratio (Cox model relative to placebo) (influenza virus [2]; single oral 10 mg): 1.312 | Time to alleviation of influenza symptoms, difference from placebo (influenza virus [2]; single oral 10 mg): -23.4 h | Time to alleviation of influenza symptoms, hazard ratio (Cox proportional hazard model relative to placebo) (influenza virus [2]; single oral 10 mg): 0.758 | Time to alleviation of influenza symptoms, median value (influenza virus [2]; single oral 10 mg): 54.2 h | Time until cough symptom is alleviated, median value (influenza virus [2]; single oral 10 mg): 31.1 h | Time until fatigue symptom is alleviated, median value (influenza virus [2]; single oral 10 mg): 32 h | Time until feverishness or chills symptom is alleviated, median value (influenza virus [2]; single oral 10 mg): 24.7 h | Time until headache symptom is alleviated, median value (influenza virus [2]; single oral 10 mg): 42.2 h | Time until muscular or joint pain symptom is alleviated, median value (influenza virus [2]; single oral 10 mg): 31.2 h | Time until nasal congestion symptom is alleviated, median value (influenza virus [2]; single oral 10 mg): 25.2 h | Time until sore throat symptom is alleviated, median value (influenza virus [2]; single oral 10 mg): 35.3 h | Time until cough symptom is alleviated, difference from placebo (influenza virus [2]; single oral 20 mg): -1.4 h | Time until cough symptom is alleviated, hazard ratio (Cox model relative to placebo) (influenza virus [2]; single oral 20 mg): 0.883 | Time until fatigue symptom is alleviated, difference from placebo (influenza virus [2]; single oral 20 mg): -11.5 h | Time until fatigue symptom is alleviated, hazard ratio (Cox model relative to placebo) (influenza virus [2]; single oral 20 mg): 0.876 | Time until feverishness or chills symptom is alleviated, difference from placebo (influenza virus [2]; single oral 20 mg): 0.6 h | Time until feverishness or chills symptom is alleviated, hazard ratio (Cox model relative to placebo) (influenza virus [2]; single oral 20 mg): 0.848 | Time until headache symptom is alleviated, difference from placebo (influenza virus [2]; single oral 20 mg): -6.7 h | Time until headache symptom is alleviated, hazard ratio (Cox model relative to placebo) (influenza virus [2]; single oral 20 mg): 0.936 | Time until muscular or joint pain symptom is alleviated, difference from placebo (influenza virus [2]; single oral 20 mg): -12 h | Time until muscular or joint pain symptom is alleviated, hazard ratio (Cox model relative to placebo) (influenza virus [2]; single oral 20 mg): 0.687 | Time until nasal congestion symptom is alleviated, difference from placebo (influenza virus [2]; single oral 20 mg): -21.3 h | Time until nasal congestion symptom is alleviated, hazard ratio (Cox model relative to placebo) (influenza virus [2]; single oral 20 mg): 0.59 | Time until sore throat symptom is alleviated, difference from placebo (influenza virus [2]; single oral 20 mg): 1.5 h | Time until sore throat symptom is alleviated, hazard ratio (Cox model relative to placebo) (influenza virus [2]; single oral 20 mg): 1.05 | Time to alleviation of influenza symptoms, difference from placebo (influenza virus [2]; single oral 20 mg): -26.6 h | Time to alleviation of influenza symptoms, hazard ratio (Cox proportional hazard model relative to placebo) (influenza virus [2]; single oral 20 mg): 0.81 | Time to alleviation of influenza symptoms, median value (influenza virus [2]; single oral 20 mg): 51.0 h and 51 h | Time until cough symptom is alleviated, median value (influenza virus [2]; single oral 20 mg): 29.8 h | Time until fatigue symptom is alleviated, median value (influenza virus [2]; single oral 20 mg): 31.3 h | Time until feverishness or chills symptom is alleviated, median value (influenza virus [2]; single oral 20 mg): 29.4 h | Time until headache symptom is alleviated, median value (influenza virus [2]; single oral 20 mg): 37 h | Time until muscular or joint pain symptom is alleviated, median value (influenza virus [2]; single oral 20 mg): 29.9 h | Time until nasal congestion symptom is alleviated, median value (influenza virus [2]; single oral 20 mg): 21.6 h | Time until sore throat symptom is alleviated, median value (influenza virus [2]; single oral 20 mg): 27.8 h | Time until cough symptom is alleviated, difference from placebo (influenza virus [2]; single oral 40 mg): -6.6 h | Time until cough symptom is alleviated, hazard ratio (Cox model relative to placebo) (influenza virus [2]; single oral 40 mg): 0.865 | Time until fatigue symptom is alleviated, difference from placebo (influenza virus [2]; single oral 40 mg): -11.7 h | Time until fatigue symptom is alleviated, hazard ratio (Cox model relative to placebo) (influenza virus [2]; single oral 40 mg): 0.724 | Time until feverishness or chills symptom is alleviated, difference from placebo (influenza virus [2]; single oral 40 mg): -5.8 h | Time until feverishness or chills symptom is alleviated, hazard ratio (Cox model relative to placebo) (influenza virus [2]; single oral 40 mg): 0.71 | Time until headache symptom is alleviated, difference from placebo (influenza virus [2]; single oral 40 mg): -5.8 h | Time until headache symptom is alleviated, hazard ratio (Cox model relative to placebo) (influenza virus [2]; single oral 40 mg): 0.655 | Time until muscular or joint pain symptom is alleviated, hazard ratio (Cox model relative to placebo) (influenza virus [2]; single oral 40 mg): 0.657 | Time until nasal congestion symptom is alleviated, hazard ratio (Cox model relative to placebo) (influenza virus [2]; single oral 40 mg): 0.564 | Time until sore throat symptom is alleviated, difference from placebo (influenza virus [2]; single oral 40 mg): 5.6 h | Time until sore throat symptom is alleviated, hazard ratio (Cox model relative to placebo) (influenza virus [2]; single oral 40 mg): 1.092 | Time to alleviation of influenza symptoms, difference from placebo (influenza virus [2]; single oral 40 mg): -28.2 h | Time to alleviation of influenza symptoms, hazard ratio (Cox proportional hazard model relative to placebo) (influenza virus [2]; single oral 40 mg): 0.817 | Time to alleviation of influenza symptoms, median value (influenza virus [2]; single oral 40 mg): 49.5 h | Time until cough symptom is alleviated, median value (influenza virus [2]; single oral 40 mg): 24.6 h | Time until fatigue symptom is alleviated, median value (influenza virus [2]; single oral 40 mg): 31.1 h | Time until feverishness or chills symptom is alleviated, median value (influenza virus [2]; single oral 40 mg): 23 h | Time until headache symptom is alleviated, median value (influenza virus [2]; single oral 40 mg): 37.9 h | Time until muscular or joint pain symptom is alleviated, median value (influenza virus [2]; single oral 40 mg): 25.4 h | Time until nasal congestion symptom is alleviated, median value (influenza virus [2]; single oral 40 mg): 21.9 h | Time until sore throat symptom is alleviated, median value (influenza virus [2]; single oral 40 mg): 31.9 h | plasma concentration of Compound II-6 [3]: a determination limit or less | Incidence of adverse events the causal relationship of which cannot be denied (patients) [4]: 4.4%
